# Measured values from patent US6737383B1, “Herbicidal oxadiazolidines” (priority 1999, dated 2004).
# Columns and labels:
# blackgrass = test: Test B pre/postemergence blackgrass; assay type: in vivo, Alopecurus myosuroides
# Summary of the method: (§1)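 Herbicidal effect was estimated by eye on a ten-point control scale after plants spent twelve to sixteen days in a greenhouse following soil or foliar treatment. Foliar sprays targeted plants at one to four leaves; all doses were formulated in a non-phytotoxic solvent with surfactant.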
# morningglory = test: Test B pre/postemergence morningglory; assay type: in vivo, Ipomoea hederacea
# Summary of the method: as §1
# wild oat = test: Test B pre/postemergence wild oat; assay type: in vivo, Avena fatua
# Summary of the method: as §1
# smallflower flatsedge = test: Test B flood test smallflower flatsedge; assay type: in vivo, Cyperus difformis
# Summary of the method: (§2)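 Read-out is a visual response score from 0 (no effect) to 10 (complete control), assigned by comparison with untreated controls. Treatment was applied at the 2-leaf stage, and plants stayed in the greenhouse for twelve to sixteen days before scoring.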
# corn = test: Test B pre/postemergence corn; assay type: in vivo, Zea mays
# Summary of the method: as §1
# rice = test: Test B flood test rice; assay type: in vivo, Oryza sativa
# Summary of the method: as §2
# surinam grass = test: Test B pre/postemergence surinam grass; assay type: in vivo, Brachiaria decumbens
# Summary of the method: as §1
# bamyardgrass = test: Test B flood test barnyardgrass; assay type: in vivo, Echinochloa crus-galli
# Summary of the method: as §2
# purple nutsedge = test: Test B pre/postemergence purple nutsedge; assay type: in vivo, Cyperus rotundus
# Summary of the method: as §1
# pigweed = test: Test B pre/postemergence pigweed; assay type: in vivo, Amaranthus retroflexus
# Summary of the method: as §1
# cocklebur = test: Test B pre/postemergence cocklebur; assay type: in vivo, Xanthium strumarium
# Summary of the method: as §1
# wheat = test: Test B pre/postemergence wheat; assay type: in vivo, Triticum aestivum
# Summary of the method: as §1
# rape = test: Test B pre/postemergence rape; assay type: in vivo, Brassica napus
# Summary of the method: as §1
# velvetleaf = test: Test B pre/postemergence velvetleaf; assay type: in vivo, Abutilon theophrasti
# Summary of the method: as §1
# bedstraw = test: Test B pre/postemergence bedstraw; assay type: in vivo, Galium aparine
# Summary of the method: as §1
# duck salad = test: Test B flood test duck salad; assay type: in vivo, Heteranthera limosa
# Summary of the method: as §2
# [1] = Postemergence, Rate 62 g/ha, scale 0 to 10, 0 is no effect, 10 is complete control
# [2] = Postemergence, Rate 250 g/ha, scale 0 to 10, 0 no effect, 10 complete control
# [3] = Preemergence, Rate 31 g/ha, visual rating, scale 0 to 10 (0 no effect, 10 complete control)
# [4] = Preemergence, Rate 62 g/ha, scale 0 to 10, 0 is no effect, 10 is complete control
# [5] = Preemergence, Rate 125 g/ha, scale 0 to 10 (0 no effect, 10 complete control)
# [6] = Preemergence, Rate 250 g/ha, scale of 0 to 10 where 0 is no effect and 10 is complete control
# [7] = Rate 31 g/ha, Postemergence, scale 0 to 10
# [8] = Rate 125 g/ha, Postemergence, scale 0 to 10, 0 no effect, 10 complete control
# [9] = Rate 125 g/ha, Postemergence section (flood test species), scale 0 to 10, 0 no effect, 10 complete control
# [10] = flood test, listed under Postemergence, Rate 250 g/ha, scale 0 to 10, 0 no effect, 10 complete control
# [11] = Rate 31 g/ha, Postemergence section (flood test species), scale 0 to 10
structure (smiles),measurement,setting,value
CCN(C(=O)n1oc(=O)n(-c2ccc(F)cc2F)c1=O)C1CCCCC1 [Compound 23],Blackgrass plant response rating,blackgrass; [1],0
same,Blackgrass plant response rating,blackgrass; [2],0
same,Blackgrass plant response rating,blackgrass; [3],0
same,"Plant response rating, Blackgrass",blackgrass; [4],0
same,"Plant response rating, Blackgrass",blackgrass; [5],1
same,"Plant response rating, Blackgrass",blackgrass; [6],2
same,Blackgrass plant response rating,blackgrass; [7],0
same,Blackgrass plant response rating,blackgrass; [8],0
same,Morningglory plant response rating,morningglory; [1],1
same,Morningglory plant response rating,morningglory; [2],10
same,Morningglory plant response rating,morningglory; [3],0
same,"Plant response rating, Morningglory",morningglory; [4],0
same,"Plant response rating, Morningglory",morningglory; [5],0
same,"Plant response rating, Morningglory",morningglory; [6],0
same,Morningglory plant response rating,morningglory; [7],0
same,Morningglory plant response rating,morningglory; [8],8
same,Wild oats plant response rating,wild oat; [1],0
same,Wild oats plant response rating,wild oat; [2],0
same,Wild oats plant response rating,wild oat; [3],0
same,"Plant response rating, Wild oats",wild oat; [5],0
same,"Plant response rating, Wild oats",wild oat; [6],0
same,Wild oats plant response rating,wild oat; [8],0
same,S. Flatsedge plant response rating,smallflower flatsedge; [1],0
same,S. Flatsedge plant response rating,smallflower flatsedge; [9],0
same,S. Flatsedge plant response rating,smallflower flatsedge; [10],0
same,Corn plant response rating,corn; [1],0
same,Corn plant response rating,corn; [2],0
same,Corn plant response rating,corn; [3],0
same,"Plant response rating, Corn",corn; [4],0
same,"Plant response rating, Corn",corn; [5],0
same,"Plant response rating, Corn",corn; [6],0
same,Corn plant response rating,corn; [7],0
same,Corn plant response rating,corn; [8],0
same,Rice plant response rating,rice; [1],0
same,Rice plant response rating,rice; [11],0
same,Rice plant response rating,rice; [9],0
same,Rice plant response rating,rice; [10],0
same,B. signalgrass plant response rating,surinam grass; [1],0
same,B. signalgrass plant response rating,surinam grass; [2],0
same,B. signalgrass plant response rating,surinam grass; [3],0
same,"Plant response rating, B. signalgrass",surinam grass; [4],0
same,"Plant response rating, B. signalgrass",surinam grass; [5],0
same,"Plant response rating, B. signalgrass",surinam grass; [6],0
same,B. signalgrass plant response rating,surinam grass; [7],0
same,B. signalgrass plant response rating,surinam grass; [8],0
same,Barnyardgrass plant response rating,bamyardgrass; [1],0
same,Barnyardgrass plant response rating,bamyardgrass; [11],0
same,Barnyardgrass plant response rating,bamyardgrass; [9],0
same,Barnyardgrass plant response rating,bamyardgrass; [10],0
same,Nutsedge plant response rating,purple nutsedge; [1],0
same,Nutsedge plant response rating,purple nutsedge; [2],0
same,Nutsedge plant response rating,purple nutsedge; [3],0
same,"Plant response rating, Nutsedge",purple nutsedge; [4],0
same,"Plant response rating, Nutsedge",purple nutsedge; [5],0
same,"Plant response rating, Nutsedge",purple nutsedge; [6],0
same,Nutsedge plant response rating,purple nutsedge; [7],0
same,Nutsedge plant response rating,purple nutsedge; [8],0
same,Redroot pigweed plant response rating,pigweed; [1],0
same,Redroot pigweed plant response rating,pigweed; [2],0
same,Redroot pigweed plant response rating,pigweed; [3],0
same,"Plant response rating, Redroot pigweed",pigweed; [4],0
same,"Plant response rating, Redroot pigweed",pigweed; [5],0
same,"Plant response rating, Redroot pigweed",pigweed; [6],0
same,Redroot pigweed plant response rating,pigweed; [7],0
same,Redroot pigweed plant response rating,pigweed; [8],0
same,Cocklebur plant response rating,cocklebur; [1],0
same,Cocklebur plant response rating,cocklebur; [2],0
same,Cocklebur plant response rating,cocklebur; [3],0
same,"Plant response rating, Cocklebur",cocklebur; [4],0
same,"Plant response rating, Cocklebur",cocklebur; [5],0
same,Cocklebur plant response rating,cocklebur; [7],0
same,Cocklebur plant response rating,cocklebur; [8],0
same,Wheat plant response rating,wheat; [1],0
same,Wheat plant response rating,wheat; [2],0
same,Wheat plant response rating,wheat; [3],0
same,"Plant response rating, Wheat",wheat; [4],0
same,"Plant response rating, Wheat",wheat; [5],0
same,"Plant response rating, Wheat",wheat; [6],0
same,Wheat plant response rating,wheat; [8],0
same,Rape plant response rating,rape; [1],0
same,Rape plant response rating,rape; [2],0
same,Rape plant response rating,rape; [3],0
same,"Plant response rating, Rape",rape; [4],0
same,"Plant response rating, Rape",rape; [5],0
same,"Plant response rating, Rape",rape; [6],0
same,Rape plant response rating,rape; [7],0
same,Rape plant response rating,rape; [8],0
same,Velvetleaf plant response rating,velvetleaf; [1],0
same,Velvetleaf plant response rating,velvetleaf; [2],0
same,Velvetleaf plant response rating,velvetleaf; [3],0
same,"Plant response rating, Velvetleaf",velvetleaf; [4],0
same,"Plant response rating, Velvetleaf",velvetleaf; [5],0
same,"Plant response rating, Velvetleaf",velvetleaf; [6],0
same,Velvetleaf plant response rating,velvetleaf; [8],0
same,Bedstraw plant response rating,bedstraw; [1],0
same,Bedstraw plant response rating,bedstraw; [2],0
same,Bedstraw plant response rating,bedstraw; [3],0
same,"Plant response rating, Bedstraw",bedstraw; [4],0
same,"Plant response rating, Bedstraw",bedstraw; [5],0
same,"Plant response rating, Bedstraw",bedstraw; [6],0
same,Bedstraw plant response rating,bedstraw; [7],0
same,Bedstraw plant response rating,bedstraw; [8],0
same,Ducksalad plant response rating,duck salad; [1],0
same,Ducksalad plant response rating,duck salad; [11],0
same,Ducksalad plant response rating,duck salad; [9],0
same,Ducksalad plant response rating,duck salad; [10],0
